Where “and” joins values, the source holds several entries; their conditions need not be identical. Equal entries are not always repeated.
What was measured:
human LDL = test: Copper-induced unfractionated LDL oxidation, TBARS, Example 7; assay type: biochemical; conditions: beginning at 1.0 μM; 1 hour
human sdLDL = test: Copper-induced sdLDL oxidation, TBARS, Example 7; assay type: biochemical
Protocol: Samples were prepared at 100 μg/mL sdLDL and incubated with EPA or DHA (10.0 μM each) for 30 minutes prior to initiating lipid oxidation using 10 μM CuSO4. Samples were maintained at 37° C. in a shaking water bath for 1 hour. Lipid oxidation was measured by colorimetric assay of TBARS formation and expressed as molar equivalents of MDA.
An experiment to study the antioxidant effect of EPA in LDL and small dense LDL (“sdLDL”) was performed. LDL and sdLDL were isolated from the plasma of healthy volunteers by iodixanol density gradient ultracentrifugation, and adjusted to a final apolipoprotein concentration of 2 mg/mL. […] Lipid oxidation was initiated with 10 μM CuSO4 and monitored by the colorimetric detection of thiobarbituric acid reactive substances (TBARS) for 1 hr. Vitamin E was also incubated with sample aliquots as a positive control.

[1] = Glucose-induced membrane lipid peroxidation (LOOH) in lipid vesicles, Example 4; assay type: biochemical; conditions: 1.0 μM; glucose 200 mg/dL; 96 hours
Protocol: An experiment was conducted to test the ability of EPA to interfere with the effects of high glucose on membrane lipid peroxidation and organization in vesicles enriched with PUFAs. […] Vitamin E (α-tocopherol) was also purchased from Sigma-Aldrich and prepared in ethanol at 1.0 mM (ε=3.06×10^4 M^−1 cm^−1 at 294 nm) just prior to experimental use. […] All test compounds were further diluted in ethanol or aqueous buffer as needed. Glucose was prepared in saline buffer (0.5 mM HEPES, 154 mM NaCl, pH 7.3) at 11.0 mM (200 mg/dL). CHOD-iodide color reagent (stock) was prepared, with slight modification, as described by from El-Saadani et al. (J. […] Samples were shell-dried under nitrogen gas and placed under vacuum for 1 h to remove residual solvent. […] Lipid suspensions were then vortexed for 3 min at ambient temperature to form MLVs. All MLV samples were subjected to time-dependent autoxidation by incubating at 37° C. in an uncovered, shaking water bath. This method allows lipid peroxidation to occur gradually without requiring the use of exogenous initiators. Small aliquots (5-100 μL) of each sample were removed, immediately following MLV preparation (0 hour) and after exposing samples to oxidative conditions for 72 or 96 hour, and combined with 1.0 mL of activated CHOD-iodide color reagent. Aliquot volume was reduced with each successive time point to ensure that spectrophotometric readings were within the optimal adsorption range. Test samples were covered and incubated in darkness at room temperature for at least 4 hr. Sample absorbances were then measured against a CHOD blank at 365 nm using a Beckman DU-640 spectrophotometer. The CHOD colorimetric assay is based on the oxidation of iodide (I^−) by lipid hydroperoxide (LOOH) to form triiodide (I3^−), the quantity of which is directly proportional to the amount of LOOH present in the lipid sample. The molar absorptivity (I3^−) of I3^− is 2.46×10^4 M^−1 cm^−1 at 365 nm. […]

[2] = test system: rat renal glomerular endothelial cells; test: NO and ONOO- release ex vivo from glomerular endothelial cells exposed to oxLDL and high glucose, Example 13; assay type: cell-based; conditions: 10.0 μM, 1 hr; oxLDL 11 mg/dL and glucose 300 mg/dL; vs vehicle
Protocol: Healthy male Wistar Kyoto (WKY) rats, aged 7-9 weeks and weighing 250±20 g, were obtained from inbred colonies (National Institutes of Health, Bethesda, Md.). Animals were housed in a controlled environment that provided food and water ad libitum prior to the study. […] Animals were sacrificed and tissue samples obtained immediately for experimentation. All procedures were conducted in accordance with standard Institutional Animal Care and Use Committee guidelines and conformed to the Guide for the Care and Use of Laboratory Animals published by the US National Institutes of Health.
EPA and DHA were purchased from Sigma-Aldrich (St. Louis, Mo.) and solubilized in ethanol to 1.0 mM under nitrogen atmosphere. […]
LDL was oxidized according to the methods of Huber et al. 16 Briefly, the purified LDL fraction was dialyzed against Tris/NaCl Buffer (50 mM Tris in 0.15 M NaCl, pH 8.0) to remove EDTA. […] LDL oxidation was initiated with 20 μM CuSO4 and monitored spectrophotometrically (234 nm) over a period of 24 hours until complete. […]
Each analyte was measured from amperograms and standard calibration curves collected under maximum current. […] Changes in current (proportional to the molar concentrations of NO or ONOO^− released) were monitored continuously immediately following Cal stimulation. […]

HUVECs = test: NO and ONOO- release from HUVECs exposed to oxLDL (nanosensors), Example 8; assay type: cell-based, human; conditions: ECs exposed to oxLDL
Protocol: Human umbilical vein endothelial cells (HUVECs) were isolated into primary cultures from female donors by Clonetics (San Diego, Calif.) and purchased as proliferating cells. All cell culture donors were healthy, with no pregnancy or prenatal complications. […] The confluent cells (4 to 5×10^5 cells/35 mm dish) were placed with minimum essential medium containing 3 mM L-arginine and 0.1 mM BH4 [(6R)-5,6,7,8-tetrahydrobiopterin]. Before experimental use, the cells (from second or third passage) were rinsed twice with Tyrode-HEPES buffer with 1.8 mM CaCl2. […]
Oxidation was monitored by the use of measurements of TBARS. […] TBARS concentration was determined as malondialdehyde (MDA) equivalents with the use of an MDA standard curve. […]
The amperometric method (with a response time of 0.1 ms) provides a quantitative signal (current) that is directly proportional to changes (from basal levels) in NO or ONOO^− concentration. […] Basal NO or ONOO^− levels were measured by differential pulse voltammetry in separate experiments. […]
Data are presented as mean±S.D. for (N) separate samples or experiments. Differences between groups were analyzed using the two-tailed, Student t-test (for comparisons between only two groups) or ANOVA followed by Student-Newman-Keuls multiple comparisons post-hoc analysis (for comparisons between three or more groups). […]

[3] = X-ray diffraction of membrane cholesterol domains in POPC/cholesterol model membranes, Example 9; conditions: C/P 1.5:1
Protocol: The fatty acid stock solutions were stored at −20° C. until use.
Samples were shell-dried under nitrogen gas and placed under vacuum for 3 hours to remove residual solvent at room temperature. After desiccation, each sample was resuspended in saline buffer (0.5 mM HEPES, 154 mM NaCl, pH 7.3) to yield a final phospholipid concentration of 2.5 mg/mL. Lipid suspensions were then vortexed for 3 minutes at ambient temperature to form MLVs.
Briefly, a 100 μL aliquot of each MLV preparation (containing 250 μg MLV) was transferred to a Lucite® sedimentation cell fitted with an aluminum foil substrate designed to collect MLVs into a single membrane pellet upon centrifugation.
After centrifugal orientation, sample supernatants were aspirated and aluminum foil substrates, each supporting a single membrane pellet, were removed from the sedimentation cells. Sample pellets were dried for 5-10 minutes at ambient conditions, mounted onto curved glass supports, and placed in hermetically-sealed, brass or glass containers (for immediate analysis or temporary storage, respectively). All x-ray diffraction experiments were conducted at 20° C., 74% relative humidity. The latter was established by exposing membrane samples to saturated solutions of L-(+)-tartaric acid (K2C4H4O6.½H2O) for at least 1 hour prior to experimental analysis. […]

Row | SMILES | inhibition of unfractionated LDL oxidation, dose dependence (human LDL) | inhibition of sdLDL oxidation vs vehicle (human sdLDL; ATM at the highest dose, 1 hr) | antioxidant effects, separate treatments [1] | reduction in ONOO^− release [2] | increase in NO release as compared to vehicle (HUVECs) | Relative Chotesterol Domain Peak Intensity ([3]; EPA D/P mole ratio 1:60) | Relative Chotesterol Domain Peak Intensity ([3]; EPA D/P mole ratio 1:90) | inhibition of sdLDL oxidation as compared to vehicle or DHA (human sdLDL; 10.0 μM, after 4 hours) | inhibition of sdLDL oxidation (TBARS formation) vs vehicle (human sdLDL; each agent 10 μM, 1 hr)
1 | CC(C)c1c(C(=O)Nc2ccccc2O)c(-c2ccccc2)c(-c2ccc(F)cc2)n1CC[C@@H](O)C[C@@H](O)CC(=O)O [ATM, Ortho (o)-hydroxy atorvastatin metabolite] | significant and dose-dependent inhibition of unfractionated LDL oxidation | 90±2% | separate and potent antioxidant effects | 25% | – | – | – | – | –
2 | CC/C=C\C/C=C\C/C=C\C/C=C\C/C=C\CCCC(=O)O [EPA, cis-5,8,11,14,17-eicosapentaenoic acid] | – | – | separate and potent antioxidant effects | – | 45% | 29.5 ± 10.9 | 36.0 ± 3.1 | significantly inhibited sdLDL oxidation | 93±2% and 92±8%
